According to PubChem BioAssay AID977621 (Broad Institute, 2014):
Results filed as inconclusive are left out. Active and inactive are the calls of the source.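 Rule for the calls: active = Wild-type ribosome reporter drop at least double the humanized mutant ribosome reporter drop, growth loss under a set limit; inconclusive = no clear call, values can overlap the other calls; inactive = the rest.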

Test system: E. coli wild-type GFP strain growth, fluorescence, 24 h
Assay: growth inhibition of wild-type GFP E. coli, dose response, H69 mutant RFP, cherry-pick (AID 977621);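 note: wild-type GFP and H69 mutant RFP strains grown together 50/50 in each well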
[1] = E. coli mixed culture, 24 h, measured here: total growth OD600, test 2

Structure (SMILES)	AC50 [1]	AC50
CC(CCc1ccccc1)NC(=O)CNC(=O)COc1ccccc1 (centres undefined)	> 100 µM	
CN(CCOc1ccccc1)C(=O)c1ccc(OC2CCN(C(=O)C3CC3)CC2)cc1		> 100 µM (inactive)
O=C(NCCc1ccccc1)c1ccc2c(c1)S(=O)(=O)c1ccccc1C2=O	41.5 µM	> 100 µM (inactive)
CC(C)N1CC2(CC(c3ccccc3C(F)(F)F)=NO2)CN1C(=O)c1ccco1 (centres undefined)		> 100 µM (inactive)
O=C(c1cc(COc2c(F)cccc2F)on1)N1C[C@H]2CC[C@H]1C2		> 100 µM (inactive)
CCOc1ncccc1C(=O)OCC(=O)NCCCc1ccccc1	> 100 µM	
Cc1noc(C)c1S(=O)(=O)N(Cc1ccccc1)C(C)C	> 100 µM	
Cc1cc(C)c(S(=O)(=O)NCCOc2ccccc2)c(C)c1-n1cnnn1		> 100 µM (inactive)
COc1ccc(NS(=O)(=O)c2ccc(Oc3c(C#N)cccc3C#N)cc2)cc1	27.5 µM	> 100 µM (inactive)
COc1cc(C(=O)NCCc2c[nH]c3ccccc23)ccc1OCc1c(C)noc1C	> 100 µM	
O=[N+]([O-])c1ccc2nc(-c3ccccc3[N+](=O)[O-])[nH]c2c1	> 100 µM	> 100 µM (inactive)
COc1cc(NC(=O)C(c2ccccc2)c2ccccc2)c(C(=O)O)cc1OC		> 100 µM (inactive)
O=C(NCc1cccnc1)C1CCN(S(=O)(=O)c2cc([N+](=O)[O-])ccc2Cl)CC1	> 100 µM	
c1ccc(Cc2nc3ccccc3s2)cc1	> 100 µM	> 100 µM (inactive)
C=CCn1c(-c2sc(-c3ccccc3)nc2C)n[nH]c1=S		> 100 µM (inactive)
O=C(CN1CCCC1)Nc1ccccc1Sc1ccc(Cl)cc1	29.9 µM	> 100 µM (inactive)
Cc1cccc(OCCC(=O)N(C)CC(=O)Nc2cccc3ccccc23)c1		> 100 µM (inactive)
O=S1(=O)N[C@@H](Cc2ccccc2)COc2cc(N3CCC[C@H]3CO)ccc21		> 100 µM (inactive)
Cc1cc(CNC(=O)COc2ccc(C)c(C)c2)c2ccccc2n1		> 100 µM (inactive)
O=C(Nc1cc(S(=O)(=O)N2CCCCC2)ccc1N1CCCCC1)C1CC1	> 100 µM	
O=C(c1ccccc1)c1ccc2nc(-c3ccc(NC(=O)c4ccccc4Br)cc3)[nH]c2c1	> 100 µM	> 100 µM (inactive)
CS(=O)(=O)N(CC(=O)N1CCc2ccccc2C1)c1cccc(Br)c1	> 100 µM	
CC(C)Cc1nnc(NS(=O)(=O)c2ccccc2)s1		> 100 µM (inactive)

Structure (SMILES)	AC50 [1]	AC50
COc1ccc(-c2csc(NC(=O)c3ccoc3C)n2)cc1	48.8 µM	> 100 µM (inactive)
CCOC(=O)C(CC)Sc1cc(C)nc2ccc(OC)cc12 (centres undefined)	> 100 µM	
C=CCn1c(C)cc(C(=O)CSc2nnc(C3CC3)n2C2CC2)c1C	> 100 µM	
COc1ccc(CNC(=O)CSCc2c(F)cccc2Cl)cc1	> 100 µM	
O=C(Nc1cccnc1)c1ccc([N+](=O)[O-])o1		> 100 µM (inactive)
O=C(O)c1cc(-c2ccc(Cl)s2)nc2ccccc12	> 100 µM	
O=C(CSc1nc2ccccc2[nH]1)Nc1cccc(S(=O)(=O)N2CCOCC2)c1	33.9 µM	> 100 µM (inactive)
O=C(O)c1ccc(-c2noc(-c3cccc(Cl)c3)n2)cc1		> 100 µM (inactive)
O=C(C[C@H]1CC[C@H]2[C@@H](COC[C@@H](O)CN2C(=O)Nc2ccc(Cl)cc2)O1)N1CCCCC1		> 100 µM (inactive)
COc1cccc(NC(=O)C(c2ccccc2)N2CCN(c3ccccn3)CC2)c1 (centres undefined)	> 100 µM	
COc1ccccc1NC(=O)Cn1cc(C(=O)c2ccco2)c2ccccc21	31.3 µM	> 100 µM (inactive)
O=C(CSc1ccccc1)NCCCc1ccccc1	> 100 µM	
O=C(c1cc2cc(F)ccc2[nH]1)N1CCN(Cc2ccc3c(c2)OCO3)CC1	24.5 µM	> 100 µM (inactive)
CC(OC(=O)COc1ccccc1)C(=O)NC1CCCC1 (centres undefined)	> 100 µM	> 100 µM (inactive)
Cc1cccc(-c2ccc([C@H]3[C@@H](CO)N4CCCCN(S(=O)(=O)c5ccccc5C)C[C@H]34)cc2)c1	27.2 µM	
CCOC(=O)c1nc(C)sc1-c1ccnn1S(=O)(=O)c1cccc(Cl)c1	45.7 µM	> 100 µM (inactive)
COc1ccc(-c2csc(C)n2)cc1Br	> 100 µM	
Cc1ccc(S(=O)(=O)Nc2ccc3c(c2)C(=O)N([C@H](C)CO)C[C@@H](C)[C@H](CN(C)C(=O)c2ccccc2)OCCCC[C@@H](C)O3)cc1	> 100 µM	
S=C1SCN(Cc2cccnc2)CN1Cc1cccnc1	> 100 µM	
O=C(CSc1ccc(-c2cccnc2)nn1)N1CCCc2ccccc21	> 100 µM	> 100 µM (inactive)
O=C(O)c1ccc(Oc2ccc([N+](=O)[O-])cc2)c([N+](=O)[O-])c1		> 100 µM (inactive)
O=C(CCC(=O)N1CCN(c2ccc(F)cc2)CC1)N1CCN(c2ccc(F)cc2)CC1	> 100 µM	> 100 µM (inactive)
COc1cc2nc(Nc3ccc(F)cc3)nc(N)c2cc1OC		> 100 µM (inactive)

Structure (SMILES)	AC50 [1]	AC50
CC(=O)c1c(C)[nH]c(C(=O)Nc2nc(C)cs2)c1C	> 100 µM	
COc1ccccc1Cn1c(=S)[nH]c2ccc(F)cc2c1=O		> 100 µM (inactive)
CCn1c(SCC(=O)Nc2ccc(OC)cc2)nc2nc3c(cc2c1=O)CCCC3	> 100 µM	
CNC(=O)c1sc(-c2ccccn2)nc1C	> 100 µM	
Cc1onc(-c2c(F)cccc2Cl)c1C(=O)c1ccccc1O	42.4 µM	
CC1=CC(C)(C)N(C(=O)CSc2nnc(C)s2)c2ccc(C)cc21	> 100 µM	
O=C(c1cc(COc2ccc(F)cc2F)on1)N1CCCC(c2ccccc2)C1 (centres undefined)	14.5 µM	> 100 µM (inactive)
Cc1ccc(C2(c3noc(CN(C)Cc4cccnc4)n3)CCCC2)cc1		> 100 µM (inactive)
COc1ccc(CC(=O)NC(C)c2ccc3ccccc3c2)cc1 (centres undefined)		> 100 µM (inactive)
CCc1ccc(CN2CCCC(CNS(=O)(=O)c3ccc(OC)cc3)C2)cc1 (centres undefined)	> 100 µM	
Cc1ccc(NC(=O)C[n+]2cc(-c3ccccc3)n3c2CCC3)cc1	> 100 µM	
O=C(O)c1ccc(COc2ccc3ccccc3c2)o1	> 100 µM	> 100 µM (inactive)
COc1cc(SC)ccc1C(=O)N1CCN(c2ccccc2F)CC1		> 100 µM (inactive)
CCOc1ccc2[nH]c3c(NCCN(C)C)ncnc3c2c1	> 100 µM	
CCc1ccc(NC(=O)COC(=O)CCCC2=NS(=O)(=O)c3ccccc3N2)cc1		> 100 µM (inactive)
CCOc1ccc(NC(=O)CN(C)CC(=O)Nc2ccc(Br)cc2F)cc1OCC	> 100 µM	> 100 µM (inactive)
Nc1ccccc1C#CC(=O)c1ccccc1		> 100 µM (inactive)
Cc1ccc(-c2cc[n+](Cc3ccccc3)cc2)cc1	> 100 µM	
CC(=O)Nc1cccc(NC(=O)CSc2ccc(-c3cccnc3)nn2)c1	48.7 µM	> 100 µM (inactive)
Cc1cc(C(=O)NCCC2=CCCCC2)ccc1[N+](=O)[O-]		> 100 µM (inactive)
O=C(Cc1coc2cc(O)ccc12)N1CCN(S(=O)(=O)c2ccc(Br)cc2)CC1	42.2 µM	> 100 µM (inactive)
O=C(COC(=O)C12CC3CC(CC(O)(C3)C1)C2)NCCc1ccc(Cl)cc1		> 100 µM (inactive)
CS(=O)(=O)NCCSc1cc(C(F)(F)F)nc2ccccc12	30.4 µM	> 100 µM (inactive)
